# Measured values reported in patent US9055743B2, “Alpha, beta-unsaturated imines” (BAYER INTELLECTUAL PROPERTY GMBH, priority 2010, dated 2015).
# Assays:
# Assay type in all cases: in vivo
# [1] = tested on: caterpillars of the army worm (Spodoptera frugiperda); experiment: Spodoptera frugiperda test (SPODFR spray treatment)
# Experimental: Spodoptera frugiperda Test (SPODFR Spray Treatment) Solvents: 78.0 parts by weight of acetone • • 1.5 parts by weight of dimethylformamide Emulsifier: 0.5 part by weight of alkylaryl polyglycol ether
# (§1) To produce a suitable preparation of active compound, 1 part by weight of active compound is mixed with the stated amounts of solvents and emulsifier, and the concentrate is diluted with emulsifier-containing water to the desired concentration.
# Discs of maize leaves (Zea mays) are sprayed with an active compound preparation of the desired concentration and, after drying, populated with caterpillars of the army worm (Spodoptera frugiperda) besetzt.
# After 7 days, the activity in % is determined. 100% means that all caterpillars have been killed; 0% means that none of the caterpillars have been killed.
# Boophilus microplus = Boophilus microplus test (BOOPMI injection); conditions: 20 μg/animal, injection into the abdomen, after 7 days
# Experimental: Boophilus microplus Test (BOOPMI Injection)
# (§2) Solvent: Dimethyl Sulphoxide
# To produce a suitable preparation of active compound, 10 mg of active compound are mixed with 0.5 ml of solvent and the concentrate is diluted with solvent to the desired concentration. The solution of active compound is injected into the abdomen (Boophilus microplus), and the animals are transferred into dishes and kept in a climatized room. The activity is assessed by […] of fertile eggs.
# After 7 days, the effect in % is determined 100% means that none of the ticks has laid any fertile eggs.
# [2] = tested on: green peach aphid (Myzus persicae); experiment: Myzus test (MYZUPE spray treatment)
# Experimental: Myzus Test (MYZUPE Spray Treatment) Solvents: 78 parts by weight of acetone • • 1.5 parts by weight of dimethylformamide Emulsifier: 0.5 part by weight of alkylaryl polyglycol ether
# as §1
# Discs of Chinese cabbage leaves (Brassica pekinensis) which are infested by all stages of the green peach aphid (Myzus persicae) are sprayed with an active compound preparation of the desired concentration.
# After 6 days, the activity in % is determined. 100% means that all aphids have been killed; 0% means that none of the aphids have been killed.
# Lucilia cuprina larvae = experiment: Lucilia cuprina test (LUCICU); conditions: 100 ppm, after 2 days
# Experimental: Lucilia cuprina Test (LUCICU)
# as §2
# To produce a suitable preparation of active compound, 10 mg of active compound are mixed with 0.5 ml of dimethyl sulphoxide and the concentrate is diluted with water to the desired concentration. Vessels containing horsemeat treated with the active compound preparation of the desired concentration are populated with about 20 Lucilia cuprina larvae.
# After 2 days, the kill in % is determined. 100% means that all larvae have been killed; 0% means that none of the larvae have been killed.
# [3] = tested on: larvae of the mustard beetle (Phaedon cochleariae); experiment: Phaedon test (PHAECO spray treatment)
# Experimental: Phaedon Test ([…] Spray Treatment) Solvents: 78.0 parts by weight of acetone • • 1.5 parts by weight of dimethylformamide Emulsifier: 0.5 part by weight of alkylaryl polyglycol ether To produce a suitable preparation of active compound, 1 part by weight of active compound is mixed with the stated amounts of solvents and emulsifiers, and the concentrate is diluted with emulsifier-containing water to the desired concentration. Discs of Chinese cabbage leaves (Brassica pekinensis) are sprayed with an active compound preparation of the desired concentration and, after drying, populated with larvae of the mustard beetle (Phaedon cochleariae).
# [4] = tested on: cat fleas (Ctenocephalides felis, fully sensitive laboratory strain); experiment: Contact test against fleas in-vitro (CTECFE contact); conditions: for activity against cat fleas: 500 g/ha, after 48 h
# Experimental: Contact Test Against Fleas In-Vitro (CTECFE Contact)
# An amount of 0.9 mg of active compound is weighed out, and 1 ml of acetone is added.
# Of this acetone solution, either […] are transferred directly into roll-necked test tubes or an aliquot is diluted with 4 parts of acetone 1:5. For its part, 250 μl of this dilution are pipetted into roll-necked test tubes, or the dilution is diluted further, etc., until the desired number of dilution steps is reached.
# The roll-necked test tubes containing the solution of the active compound in acetone are immediately coated in a fume cupboard by 2 h of swing rotation at 30 rpm. After evaporation of the solvent, the active compound contained in the acetone gives, at the highest concentration tested, an active compound content of 500 g/ha (or 500 μg/dm^2) on the surface of the test tube.
# 10-20 Adult cat fleas (Ctenocephalides felis, fully sensitive laboratory strain) anesthetized with CO2 are transferred into the test tubes prepared in this manner, and the test tubes are closed with a plastic roll-necked lid provided with fine holes.
# The test tubes are stored vertically at room temperature and humidity for 24 or 48 h. After 24 and 48 h, the activity of the active compound applied is determined by comparison with an acetone-treated control. Here, an observed normal activity for all fleas corresponds to 0% activity, a strongly restricted or uncoordinated (knock-down) movement or death of all fleas corresponds to 100% activity.
# Ctenocephalides felis = Ctenocephalides felis oral test (CTECFE); conditions: 100 ppm in citrated cattle blood, after two days
# Experimental: Ctenocephalides Felis Oral Test (CTECFE)
# Solvent: 1 Part by Weight of Dimethyl Sulphoxide
# To produce a suitable preparation of active compound, 10 mg of active compound are mixed with 0.5 ml of dimethyl sulphoxide. Part of the concentrate is diluted with citrated cattle blood, and the desired concentration is prepared.
# About 20 unfed adult fleas (Ctenocephalides felis) are placed into a chamber which is closed at the top and bottom with gauze. A metal cylinder whose bottom end is closed with parafilm is placed onto the chamber. The cylinder contains the blood/active compound preparation, which can be taken up by the fleas through the parafilm membrane. After two days, the kill in % is determined 100% means that all fleas have been killed; 0% means that none of the fleas have been killed.
# [5] = tested on: greenhouse red spider mite (Tetranychus urticae); experiment: Tetranychus test; OP-resistant (TETRUR spray treatment)
# Experimental: Tetranychus Test; OP-Resistant (TETRUR Spray Treatment) Solvents: 78.0 parts by weight of acetone • • 1.5 parts by weight of dimethylformamide Emulsifier: 0.5 part by weight of alkylaryl polyglycol ether
# as §1
# Discs of bean leaves (Phaseolus vulgaris) infested by all stages of the greenhouse red spider mite (Tetranychus urticae) are sprayed with an active compound preparation of the desired concentration.
# After 6 days, the activity in % is determined. 100% means that all spider mites have been killed; 0% means that none of the spider mites have been killed.
# [6] = tested on: Anopheles gambiae (homocygus kdr); experiment: Anopheles test (ANPHGB surface treatment); conditions: for knock-down activity: 100 mg/m^2, two hours after contact, exposition 30 minutes
# Experimental: Anopheles Test (ANPHGB Surface Treatment) Solvent: Acetone
# (§3) To produce a suitable preparation of active compound, the active compound is dissolved in acetone (2 mg/ml). The active compound preparation is pipetted onto a glazed tile and, after drying, adult mosquitoes of the species Anopheles gambiae (homocygus kdr) are placed onto the treated tile. The exposition time is 30 minutes.
# (§4) Two hours after contact to the treated surface, the knock-down proportion of the test animals in % is determined.
# 24 hours after contact to the treated surface, the mortality in % is determined. Here, 100% means that all mosquitoes have been killed; 0% means that none of the mosquitoes has been killed.
# Aedes aegypti = experiment: Aedes test (AEDSAE surface treatment); conditions: for knock-down activity: 100 mg/m^2, two hours after contact, exposition 30 minutes
# Experimental: Aedes Test (AEDSAE Surface Treatment)
# as §3, with “Aedes aegypti” for “Anopheles gambiae (homocygus kdr)”
# as §4
# 24 hours after contact to the treated surface, the mortality in % is determined Here, 100% means that all mosquitoes have been killed; 0% means that none of the mosquitoes has been killed.
# [7] = active compound concentration 100 g/ha
# [8] = active compound concentration 500 g/ha
SMILES,"activity (caterpillars killed) ([1]; 500 g/ha, spray, after 7 days) [%]",activity (100% = none of the ticks has laid any fertile eggs) (Boophilus microplus) [%],"activity (aphids killed) ([2]; 500 g/ha, spray, after 6 days) [%]","activity (beetle larvae killed) ([3]; 500 g/ha, spray, after 7 days) [%]",activity against cat fleas [4] [%],activity (kill in %) (Ctenocephalides felis) [%],"activity (spider mites killed) ([5]; 500 g/ha, spray, after 6 days) [%]",knock-down activity [6] [%],knock-down activity (Aedes aegypti) [%],also measured
CC1C(=CSc2ccccc2)C(=Nc2ccc(F)cc2)c2ccccc21 (mixture of isomers) [Example 1-6],100,100,100,100,100,100,100,–,–,activity (kill in %) (Lucilia cuprina larvae): 100%
Cc1ccc(N=C2C(=CSc3ccccc3)C(c3ccccc3)c3ccccc32)cc1 (mixture of isomers) [Example 1-20],100,100,100,100,100,–,100,–,–,–
Cc1ccc(N=C2C(=CSc3ccc(F)cc3)C(C)c3cc(F)ccc32)cc1C (mixture of isomers) [Example 1-63],100,100,100,100,100,90,100,–,–,–
Cc1ccc(N=C2C(=CSc3ccc(F)cc3)C(C)c3cc(C)ccc32)c(C)c1 (mixture of isomers) [Example 1-85],100,100,100,100,100,90,100,100,–,activity (kill in %) (Lucilia cuprina larvae): 100%
Cc1ccc(N=C2C(=CSc3ccccc3)COc3ccccc32)cc1 [Example 1-7],100,–,100,100,100,–,100,100,85,–
COc1ccc2c(c1)CCC(=CSc1ccc(F)cc1)C2=Nc1ccc(C)cc1 [Example 1-17],100,–,100,100,100,–,100,95,100,–
Cc1ccc(N=C2C(=CSc3ccc(F)cc3)C(C)(C)c3ccccc32)cc1 [Example 1-21],–,–,–,–,100,–,–,–,–,"pest or weed control at 500 g/ha ([1]; Spodoptera frugiperda, 168 h, 500 g/ha, spray, after 7 days, read-out: activity (caterpillars killed)): 100%; Kill rate in % after 7 days [1, 7]: 83%; mortality at 100 mg/m2 ([6]; Anopheles gambiae, read-out: activity (mortality in %)): 100%; Kill rate in % after 24 hours ([6]; active compound concentration 8 g/ha): 100%; pest or weed control at 500 g/ha ([2]; Myzus persicae, 144 h, 500 g/ha, spray, after 6 days, read-out: activity (aphids killed)): 100%; Kill rate in % after 6 days [2, 7]: 100%; Kill rate in % after 6 days [2, 8]: 100%; mortality at 100 mg/m2 (Aedes aegypti; Aedes aegypti, read-out: activity (mortality in %)): 100%; pest or weed control at 500 g/ha ([3]; Phaedon cochleariae, 168 h, 500 g/ha, spray, after 7 days, read-out: activity (beetle larvae killed)): 100%; Kill rate in % after 7 days [3, 8]: 100%; Kill rate in % after 2 days ([4]; active compound concentration 0.032 g/ha): 100%; Kill rate in % after 2 days ([4]; active compound concentration 0.16 g/ha): 100%; pest or weed control at 500 g/ha ([5]; Tetranychus urticae, 144 h, 500 g/ha, spray, after 6 days, read-out: activity (spider mites killed)): 100%; Kill rate in % after 6 days [5, 7]: 100%; Kill rate in % after 6 days [5, 8]: 100%"
CCc1ccc(N=C2C(=CSc3ccc(F)cc3)CCc3ccccc32)cc1 [Example 1-39],100,–,100,100,100,–,80,100,100,–
CCc1ccc2c(c1)CCC(=CSc1ccc(F)cc1)C2=Nc1ccc(C)cc1 [Example 1-84],100,–,100,100,100,–,100,100,100,–
